# Test results from ChEMBL document CHEMBL1201862, “PubChem BioAssay data set” (2004).
#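 Exposure lasted 48 hours, with cells grown in 96-well plates and compounds tested at five concentrations. The concentration for 50% growth inhibition is given as GI50.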 Active and inactive are the calls of the source. Cut-off read from the data, not from the text of the source: active = GI50 up to about 1.1 µM and inactive = higher.
# Columns and labels:
# Experiment in all cases: NCI anticancer screen, dose series, 48 h
# 786-0 = test system: 786-0
# A498 = test system: A498
# A549 = test system: A549
# ACHN = test system: ACHN
# CAKI-1 = test system: CAKI-1
# CCRF-CEM = test system: CCRF-CEM
# COLO 205 = test system: COLO 205
# DLD-1 = test system: DLD-1
# DMS-273 = test system: DMS-273
# EKVX = test system: EKVX
# HCC 2998 = test system: HCC 2998
# HCT-116 = test system: HCT-116
# HCT-15 = test system: HCT-15
# HOP-18 = test system: HOP-18
# HOP-62 = test system: HOP-62
# HOP-92 = test system: HOP-92
# HT-29 = test system: HT-29
# IGROV-1 = test system: IGROV-1
# K562 = test system: K562
# KM-20L2 = test system: KM-20L2
# KM12 = test system: KM12
# LOX IMVI = test system: LOX IMVI
# LXFL 529 = test system: LXFL 529
# M14 = test system: M14
# MOLT-4 = test system: MOLT-4
# Malme-3M = test system: Malme-3M
# NCI-H226 = test system: NCI-H226
# NCI-H23 = test system: NCI-H23
# NCI-H460 = test system: NCI-H460
# NCI-H522 = test system: NCI-H522
# OVCAR-3 = test system: OVCAR-3
# OVCAR-4 = test system: OVCAR-4
# OVCAR-5 = test system: OVCAR-5
# RPMI-8226 = test system: RPMI-8226
# RXF 393 = test system: RXF 393
# RXF 631 = test system: RXF 631
# SF-268 = test system: SF-268
# SF-295 = test system: SF-295
# SF-539 = test system: SF-539
# SK-MEL-28 = test system: SK-MEL-28
# SK-MEL-2 = test system: SK-MEL-2
# SK-MEL-5 = test system: SK-MEL-5
# SK-OV-3 = test system: SK-OV-3
# SN12C = test system: SN12C
# SNB-19 = test system: SNB-19
# SNB-75 = test system: SNB-75
# SNB-78 = test system: SNB-78
# SR = test system: SR
# SW-620 = test system: SW-620
# TK-10 = test system: TK-10
# U-251 = test system: U-251
# UACC-257 = test system: UACC-257
# UACC-62 = test system: UACC-62
# UO-31 = test system: UO-31
compound,measurement,setting,value
Cc1ccc2[nH]c(=O)c(C(C#N)c3ccccc3)nc2c1 (centres undefined),GI50,786-0,41.8 µM (inactive)
same,GI50,A498,> 100 µM (inactive)
same,GI50,A549,35.5 µM (inactive)
same,GI50,ACHN,50.9 µM (inactive)
same,GI50,CAKI-1,34.6 µM (inactive)
same,GI50,CCRF-CEM,32.7 µM (inactive)
same,GI50,COLO 205,27 µM (inactive)
same,GI50,DLD-1,42.6 µM (inactive)
same,GI50,DMS-273,44.5 µM (inactive)
same,GI50,EKVX,30.5 µM (inactive)
same,GI50,HCC 2998,28.2 µM (inactive)
same,GI50,HCT-116,33.7 µM (inactive)
same,GI50,HCT-15,31.4 µM
same,GI50,HOP-18,24.7 µM (inactive)
same,GI50,HOP-62,> 100 µM (inactive)
same,GI50,HOP-92,32.7 µM (inactive)
same,GI50,HT-29,32.8 µM (inactive)
same,GI50,IGROV-1,34.2 µM (inactive)
same,GI50,K562,47.9 µM (inactive)
same,GI50,KM-20L2,37.2 µM (inactive)
same,GI50,KM12,32 µM (inactive)
same,GI50,LOX IMVI,34.4 µM (inactive)
same,GI50,LXFL 529,32.7 µM (inactive)
same,GI50,M14,41.8 µM (inactive)
same,GI50,MOLT-4,20.9 µM (inactive)
same,GI50,Malme-3M,45.2 µM (inactive)
same,GI50,NCI-H226,30.1 µM (inactive)
same,GI50,NCI-H23,60.8 µM (inactive)
same,GI50,NCI-H460,72.3 µM (inactive)
same,GI50,NCI-H522,32.7 µM (inactive)
same,GI50,OVCAR-3,23.6 µM (inactive)
same,GI50,OVCAR-4,30.1 µM (inactive)
same,GI50,OVCAR-5,55.3 µM (inactive)
same,GI50,RPMI-8226,15.6 µM (inactive)
same,GI50,RXF 393,23 µM (inactive)
same,GI50,RXF 631,44.1 µM (inactive)
same,GI50,SF-268,32.6 µM (inactive)
same,GI50,SF-295,30.4 µM (inactive)
same,GI50,SF-539,46.7 µM (inactive)
same,GI50,SK-MEL-28,60.4 µM (inactive)
same,GI50,SK-MEL-2,20 µM (inactive)
same,GI50,SK-MEL-5,19 µM (inactive)
same,GI50,SK-OV-3,50.7 µM (inactive)
same,GI50,SN12C,49.5 µM (inactive)
same,GI50,SNB-19,27.4 µM (inactive)
same,GI50,SNB-75,30.5 µM (inactive)
same,GI50,SNB-78,28.1 µM (inactive)
same,GI50,SR,71.3 µM (inactive)
same,GI50,SW-620,43.8 µM (inactive)
same,GI50,TK-10,> 100 µM (inactive)
same,GI50,U-251,24.3 µM (inactive)
same,GI50,UACC-257,59.8 µM (inactive)
same,GI50,UACC-62,26.5 µM (inactive)
same,GI50,UO-31,27.9 µM (inactive)
